These results are taken from PubChem BioAssay (NCI).

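Where inhibition never reached the appropriate level, the endpoint shown equals the highest concentration tested. Otherwise, values were interpolated linearly from a five-concentration, 48-hour dose response in 96-well plates. Here, GI50 denotes the concentration required for 50% inhibition of growth. TGI marks complete inhibition of growth.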

Among the test systems are OVCAR-3 ovarian; RPMI-8226 leukemia; IGROV1 ovarian; SNB-75 CNS; HCC-2998 colon; SNB-19 CNS; UACC-62 melanoma; SN12C renal; EKVX NSCLC; CCRF-CEM leukemia.
What all share (assay): NCI-60 cell line screen, 48 h

With `CC[C@@H]1[C@@H](C)O[C@@](O)([C@@H](C)[C@H](O)[C@H](C)[C@H]2OC(=O)/C=C/C=C/[C@H](C)[C@@H]([C@@H](C)[C@@H](O)[C@H](C)[C@@]3(O)C[C@@H](O[C@H]4C[C@@H](O)[C@H](O)C(C)O4)[C@H](CC)[C@@H](C)O3)OC(=O)/C=C/C=C/[C@@H]2C)C[C@H]1O[C@@H]1C[C@@H](O)[C@H](O)C(C)O1` (some centres undefined), the GI50 with OVCAR-3 ovarian was 79.1 nM; in the experiment on RPMI-8226 leukemia, 0.0643 µM; in the experiment on IGROV1 ovarian it was 90.3 nM; with SNB-75 CNS, 49.5 nM; in the experiment with HCC-2998 colon, 97 nM; in the experiment on SNB-19 CNS, 73.1 nM. In addition, the GI50 in the experiment on UACC-62 melanoma is 60.4 nM; in the experiment with SN12C renal, 58.4 nM; with EKVX NSCLC, 110 nM. Further, the TGI with OVCAR-3 ovarian is 0.219 µM; in the experiment with RPMI-8226 leukemia, 0.153 µM; in the experiment on IGROV1 ovarian it was 0.241 µM; in the experiment on SNB-75 CNS it was 0.149 µM; in the experiment on HCC-2998 colon, 0.262 µM; in the experiment with SNB-19 CNS, 0.212 µM. Moreover, the TGI in the experiment with UACC-62 melanoma worked out at 0.152 µM; in the experiment on SN12C renal, 0.126 µM; in the experiment with EKVX NSCLC it was 0.468 µM.

Consider `O=C(c1ccco1)c1nc2cc(C(F)(F)F)ccc2nc1C(F)(F)F`, for which the GI50 with OVCAR-3 ovarian is more than 100000 nM; in the experiment with RPMI-8226 leukemia it was 49.8 µM; in the experiment on IGROV1 ovarian, more than 100000 nM; with SNB-75 CNS, 18900 nM; in the experiment with HCC-2998 colon it was more than 100000 nM; in the experiment on SNB-19 CNS, more than 100000 nM. Besides, the GI50 in the experiment on UACC-62 melanoma, in the experiment on SN12C renal and with EKVX NSCLC was more than 100000 nM in each case. Besides, the TGI in the experiment on OVCAR-3 ovarian was more than 100 µM; in the experiment with RPMI-8226 leukemia, more than 100 µM; in the experiment with IGROV1 ovarian, more than 100 µM; in the experiment with SNB-75 CNS, 62.7 µM; with HCC-2998 colon it was more than 100 µM; with SNB-19 CNS it was more than 100 µM. For the same compound, the TGI in the experiment on UACC-62 melanoma, in the experiment with SN12C renal and with EKVX NSCLC was more than 100 µM throughout.

As for `Oc1ccc([Te]CCNCC[Te]c2ccc(O)cc2)cc1`, the TGI is more than 100 µM in the experiment on RPMI-8226 leukemia; more than 100 µM with IGROV1 ovarian; 70.8 µM in the experiment with SNB-75 CNS; 38.2 µM with HCC-2998 colon; more than 100 µM with SNB-19 CNS; more than 100 µM with CCRF-CEM leukemia. Moreover, the TGI in the experiment on UACC-62 melanoma was 45.8 µM; in the experiment on SN12C renal, more than 100 µM; in the experiment on EKVX NSCLC, 19 µM.

With `COC(=O)C(=O)C(C(=O)C(=O)Nc1cccc(C(C)=O)c1)c1nc2ccc([N+](=O)[O-])cc2[nH]c1=O` (centres undefined), the TGI with RPMI-8226 leukemia, in the experiment on IGROV1 ovarian, in the experiment with HCC-2998 colon, in the experiment on SNB-19 CNS, with CCRF-CEM leukemia and in the experiment with UACC-62 melanoma was more than 100 µM in each case. Besides, the TGI in the experiment with SN12C renal and in the experiment with EKVX NSCLC was more than 100 µM throughout.

On to `c1ccc([CH2][Sn]([CH2]c2ccccc2)([O]c2cccc3cccnc23)[O]c2cccc3cccnc23)cc1`, for which the GI50 is 300 nM in the experiment on OVCAR-3 ovarian; 403 nM in the experiment on IGROV1 ovarian; 468 nM in the experiment on SNB-75 CNS; 201 nM in the experiment with HCC-2998 colon; 1150 nM in the experiment with SNB-19 CNS; 178 nM in the experiment with UACC-62 melanoma. For the same compound, the GI50 in the experiment on SN12C renal is 603 nM; with EKVX NSCLC it was 741 nM. The TGI with OVCAR-3 ovarian is 0.949 µM; with IGROV1 ovarian, 1.23 µM; in the experiment on SNB-75 CNS, 1.81 µM; in the experiment with HCC-2998 colon, 0.418 µM; in the experiment with SNB-19 CNS, 2.49 µM; with UACC-62 melanoma, 0.447 µM. The TGI came out at 2.1 µM with SN12C renal and 1.99 µM in the experiment on EKVX NSCLC.

For the compound `O=C(/C=C/c1ccco1)c1cc(F)c(Cl)cc1Cl`, the GI50 in the experiment on OVCAR-3 ovarian was 21400 nM; with RPMI-8226 leukemia, 13.8 µM; in the experiment on IGROV1 ovarian it was 17200 nM; with SNB-75 CNS, 22300 nM; in the experiment with SNB-19 CNS it was 20000 nM; with CCRF-CEM leukemia, 18.8 µM. Also, the GI50 in the experiment on UACC-62 melanoma is 16500 nM; with SN12C renal it was 22900 nM; with EKVX NSCLC, 17100 nM. The TGI worked out at 60.4 µM with OVCAR-3 ovarian; 39.9 µM with RPMI-8226 leukemia; 41 µM with IGROV1 ovarian; 44.2 µM with SNB-75 CNS; 48.4 µM in the experiment with SNB-19 CNS; 47.5 µM in the experiment with CCRF-CEM leukemia. In addition, the TGI was determined as 34.6 µM in the experiment with UACC-62 melanoma, 57.5 µM with SN12C renal and 37.3 µM with EKVX NSCLC.

For `CC(=O)Nc1ccc(/C=c2\sc3nnc(CCC(=O)Nc4ccccc4Cl)n3c2=O)cc1`, the TGI in the experiment on OVCAR-3 ovarian is 47.4 µM; in the experiment on RPMI-8226 leukemia, 45.2 µM; in the experiment with IGROV1 ovarian, more than 100 µM; in the experiment on HCC-2998 colon, more than 10 µM; in the experiment with SNB-19 CNS it was more than 100 µM; with CCRF-CEM leukemia it was 42.9 µM. The TGI with UACC-62 melanoma was 56.2 µM; with SN12C renal, more than 100 µM; with EKVX NSCLC it was more than 100 µM.

`C[C@]12CCc3nc(Nc4cccc(O)c4)sc3C1=CC[C@@H]1[C@@H]2CC[C@]2(C)/C(=N\NC(N)=S)CC[C@@H]12`: the GI50 in the experiment on OVCAR-3 ovarian was 1400 nM; in the experiment on IGROV1 ovarian, 2310 nM; in the experiment on SNB-75 CNS, 792 nM; in the experiment with HCC-2998 colon, 1860 nM; in the experiment on SNB-19 CNS it was 1880 nM; with CCRF-CEM leukemia, 1.97 µM. Besides, the GI50 in the experiment with UACC-62 melanoma was 2010 nM; with SN12C renal it was 1980 nM; in the experiment on EKVX NSCLC it was 2740 nM. Besides, the TGI in the experiment on OVCAR-3 ovarian is 2.87 µM; in the experiment on IGROV1 ovarian, 6.25 µM; in the experiment with SNB-75 CNS, 7.01 µM; with HCC-2998 colon, 3.49 µM; with SNB-19 CNS it was 12.8 µM; in the experiment with CCRF-CEM leukemia it was more than 100 µM. Moreover, the TGI in the experiment with UACC-62 melanoma came out at 4.46 µM; in the experiment on SN12C renal, 5.31 µM; in the experiment with EKVX NSCLC it was 9.26 µM.

As to `O=C(O)/C=C/C(=O)N1Cc2cc3ccccc3nc2C1`, the TGI in the experiment on OVCAR-3 ovarian, with RPMI-8226 leukemia, in the experiment on IGROV1 ovarian, in the experiment on SNB-75 CNS, with HCC-2998 colon and in the experiment with SNB-19 CNS was more than 100 µM in each case. The TGI in the experiment on UACC-62 melanoma, in the experiment on SN12C renal and with EKVX NSCLC was more than 100 µM in each case.

As to `NCCCNc1nc2ccccc2c2c(=O)c3cc(F)cc(F)c3sc12`, the GI50 in the experiment on OVCAR-3 ovarian was 1720 nM; with SNB-75 CNS it was 1360 nM; with HCC-2998 colon, 1690 nM; in the experiment on SNB-19 CNS it was 1700 nM; in the experiment on UACC-62 melanoma, 1810 nM; in the experiment on SN12C renal, 1680 nM. In addition, the GI50 with EKVX NSCLC was 1600 nM. For the same compound, the TGI amounted to 3.19 µM in the experiment with OVCAR-3 ovarian; 2.7 µM in the experiment on SNB-75 CNS; 3.36 µM with HCC-2998 colon; 3.23 µM in the experiment with SNB-19 CNS; 3.48 µM in the experiment on UACC-62 melanoma; 3.27 µM with SN12C renal. The same compound came in with a TGI with EKVX NSCLC of 3.12 µM.

`CC[C@H]1CN2CCc3cc(OC)c(OC)cc3C2C[C@@H]1CC1NCCc2cc(OC)c(OC)cc21` (some centres undefined): the TGI stood at 0.197 µM in the experiment on OVCAR-3 ovarian; 0.128 µM in the experiment on RPMI-8226 leukemia; 0.407 µM in the experiment with IGROV1 ovarian; 0.065 µM with HCC-2998 colon; 0.204 µM in the experiment with CCRF-CEM leukemia; 0.316 µM with UACC-62 melanoma. Further, the TGI with SN12C renal stood at 0.289 µM; with EKVX NSCLC it was 0.136 µM. The GI50 in the experiment with CCRF-CEM leukemia is 0.0186 µM.

`COC1OC(CO)C(O)C(OC(C)=O)C1NC(=O)N(CCCl)N=O` (centres undefined): the TGI in the experiment with OVCAR-3 ovarian, with IGROV1 ovarian, with SNB-75 CNS, with HCC-2998 colon, with SNB-19 CNS and in the experiment on CCRF-CEM leukemia was more than 100 µM throughout. In addition, the TGI in the experiment on UACC-62 melanoma, in the experiment with SN12C renal and in the experiment on EKVX NSCLC was more than 100 µM each time.

For the compound `Cc1cc([N+](=O)[O-])ccc1Sc1c2ccccc2nc2cc(Cl)ccc12`, the TGI in the experiment on OVCAR-3 ovarian is more than 100 µM; in the experiment with IGROV1 ovarian, more than 100 µM; with SNB-75 CNS, 89.7 µM; in the experiment on HCC-2998 colon, more than 100 µM; with SNB-19 CNS, more than 100 µM; in the experiment with CCRF-CEM leukemia, more than 100 µM. For the same compound, the TGI with UACC-62 melanoma is more than 100 µM; in the experiment with SN12C renal, 92.7 µM; in the experiment with EKVX NSCLC, more than 100 µM.

Regarding `CCC(CC)c1nc(Nc2ccc(C(=O)OC)cc2)c2ccccc2n1`, the GI50 in the experiment with OVCAR-3 ovarian is 5700 nM; with RPMI-8226 leukemia, 5.08 µM; with IGROV1 ovarian, 11600 nM; in the experiment with HCC-2998 colon, 8660 nM; with SNB-19 CNS it was 8070 nM; with CCRF-CEM leukemia it was 6.64 µM. In addition, the values for the GI50 with UACC-62 melanoma, in the experiment on SN12C renal and in the experiment on EKVX NSCLC were 9130 nM, 7830 nM and 15900 nM, respectively. Moreover, the TGI in the experiment on OVCAR-3 ovarian is 21 µM; with RPMI-8226 leukemia, 22.9 µM; in the experiment with IGROV1 ovarian, 28.5 µM; in the experiment with HCC-2998 colon, 17.1 µM; in the experiment on SNB-19 CNS it was 15.2 µM; in the experiment with CCRF-CEM leukemia it was 48.9 µM. In addition, the TGI is 18.6 µM in the experiment with UACC-62 melanoma, 16.3 µM with SN12C renal and more than 29.4 µM with EKVX NSCLC.

Turning to `C#CCNC(=O)N(CC#C)N=O`, the TGI in the experiment on OVCAR-3 ovarian, with IGROV1 ovarian, in the experiment on SNB-75 CNS, with HCC-2998 colon, in the experiment on SNB-19 CNS and with CCRF-CEM leukemia was more than 100 µM each time. Also, the TGI with UACC-62 melanoma, in the experiment on SN12C renal and in the experiment with EKVX NSCLC was more than 100 µM throughout.

Regarding `CCOC(=O)C1SC(=Nc2cccc(Cl)c2C)N=C1C` (centres undefined), the TGI in the experiment with OVCAR-3 ovarian was 42.5 µM; in the experiment on RPMI-8226 leukemia, 69.9 µM; in the experiment on IGROV1 ovarian, more than 100 µM; in the experiment with SNB-75 CNS it was 61.4 µM; in the experiment on HCC-2998 colon it was more than 10 µM; with SNB-19 CNS, more than 100 µM. The TGI with SN12C renal is 35.6 µM; in the experiment with EKVX NSCLC, more than 10 µM.
